Data published in ChEMBL document CHEMBL1201862, “PubChem BioAssay data set” (2004).
The source made the active and inactive calls. Rule as the data show it, for most assays here: active = IC50 of 5 µM or less and inactive = more.

Assays:
[1] = molecular target: Bifunctional protein GlmU (Mycobacterium tuberculosis, UniProt P9WMN3); assay: Inhibitors of Mycobacterial Glucosamine-1-phosphate acetyl transferase (GlmU). Secondary screen.; parameters: species or system Mycobacterium tuberculosis H37Rv
Estrogen receptor beta = Estrogen receptor beta (Homo sapiens, UniProt Q92731);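 also: recombinant ER-beta bound to coactivator SRC1 peptide in presence of estradiol agonist; inhibitors block coactivator peptide binding and lower the FRET signal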
[2] = molecular target: T1, RNA-binding protein pos-1 (Caenorhabditis elegans, UniProt G5EF15); assay: disruptors of C. elegans POS-1 RNA interaction – biochemical, fluorescence polarization, dose response (AID 1964);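 also: purified POS-1 fused to maltose binding protein made in E. coli; potency of compounds blocking POS-1 binding to fluorescent RNA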
T1 sequence (G5EF15 whole entry): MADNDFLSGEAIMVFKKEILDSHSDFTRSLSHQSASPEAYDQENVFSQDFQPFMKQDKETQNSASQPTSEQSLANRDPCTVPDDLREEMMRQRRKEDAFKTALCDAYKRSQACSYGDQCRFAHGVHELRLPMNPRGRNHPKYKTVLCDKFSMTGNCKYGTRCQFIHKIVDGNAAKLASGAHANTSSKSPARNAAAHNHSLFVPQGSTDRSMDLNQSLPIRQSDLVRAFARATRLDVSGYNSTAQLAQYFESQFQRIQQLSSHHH

[3] = molecular target: T2, Zinc finger protein mex-5 (Caenorhabditis elegans, UniProt Q9XUB2); assay: potency of MEX-5 RNA-binding blockers – biochemical, C. elegans, fluorescence polarization, dose response (AID 1960)
T2 sequence (Q9XUB2 whole entry): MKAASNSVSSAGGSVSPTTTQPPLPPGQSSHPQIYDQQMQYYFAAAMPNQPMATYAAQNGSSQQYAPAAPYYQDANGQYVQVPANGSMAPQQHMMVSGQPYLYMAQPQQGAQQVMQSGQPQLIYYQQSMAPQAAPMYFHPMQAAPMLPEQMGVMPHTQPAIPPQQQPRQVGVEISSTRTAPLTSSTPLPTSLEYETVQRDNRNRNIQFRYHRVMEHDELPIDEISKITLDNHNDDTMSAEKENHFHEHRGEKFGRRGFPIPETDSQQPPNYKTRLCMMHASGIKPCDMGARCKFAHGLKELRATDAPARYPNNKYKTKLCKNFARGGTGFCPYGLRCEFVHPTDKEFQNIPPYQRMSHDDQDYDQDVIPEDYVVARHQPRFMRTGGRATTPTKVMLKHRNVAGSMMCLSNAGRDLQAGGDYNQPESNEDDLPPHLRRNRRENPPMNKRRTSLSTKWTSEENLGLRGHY

[4] = molecular target: Heat shock protein HSP 90-alpha (Homo sapiens, UniProt P07900); assay: Luminescence-based dose response biochemical high throughput screening assay for inhibitors of the Heat Shock Protein 90 (HSP90). [Related pubchem assays: 1831 (Summary AID.), 1846 (Confirmation screen.), 1789 (Primary screen.)]
[5] = RKO cell viability reduction, dose response, CellTiter-Glo luminescence (AID 1117322); assay type: functional
[6] = CellTiter-Glo luminescence survival assay, SW480 colon tumor line, concentration-response curve, half-maximal inhibitory concentration (AID 1117338); assay type: functional
[7] = cytotoxicity toward HT-29 cells – cell-based, CellTiter-Glo luminescence, IC50, dose response (AID 1117330); assay type: functional
[8] = HCT116 cell viability decrease, GSK3B pretreatment – CellTiter-Glo, IC50, dose response (AID 1117339); assay type: functional; details: HCT-116
[9] = SNU-C1 cell viability reduction, dose response, CellTiter-Glo luminescence (AID 1117323); assay type: functional, cell-based
[10] = Reduced DLD-1 viability, concentration-response, CellTiter-Glo luminescence (AID 1117352); assay type: functional
[11] = cytotoxicity toward Colo320 cells – cell-based, CellTiter-Glo luminescence, IC50, dose response (AID 1117334); assay type: functional; details: COLO 320
[12] = cytotoxicity toward HCT116 cells – cell-based, CellTiter-Glo luminescence, IC50, dose response (AID 1117332); assay type: functional; details: HCT-116
Cytochrome P450 2C19 = Cytochrome P450 2C19 (Homo sapiens, UniProt P33261); assay: qHTS Assay for Inhibitors and Substrates of Cytochrome P450 2C19. [Related pubchem assays: 410 ]; assay type: ADME; details: read-out: Potency
Sequence of Cytochrome P450 2C19 (P33261 whole entry): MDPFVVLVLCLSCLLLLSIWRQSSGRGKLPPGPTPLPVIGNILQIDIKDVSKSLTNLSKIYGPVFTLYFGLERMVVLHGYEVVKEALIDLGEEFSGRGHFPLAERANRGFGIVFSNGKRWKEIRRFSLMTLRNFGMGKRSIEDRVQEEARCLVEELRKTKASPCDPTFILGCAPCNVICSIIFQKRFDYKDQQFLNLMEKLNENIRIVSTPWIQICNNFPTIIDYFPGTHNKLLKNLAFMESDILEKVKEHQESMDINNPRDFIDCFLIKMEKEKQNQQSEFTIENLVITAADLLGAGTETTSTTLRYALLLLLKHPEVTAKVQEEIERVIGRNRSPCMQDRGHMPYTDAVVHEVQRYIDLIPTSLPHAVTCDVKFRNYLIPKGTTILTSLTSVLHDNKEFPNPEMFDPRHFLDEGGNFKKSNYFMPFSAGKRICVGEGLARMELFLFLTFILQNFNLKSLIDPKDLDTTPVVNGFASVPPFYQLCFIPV

Sequence of Bifunctional protein GlmU (P9WMN3 whole entry): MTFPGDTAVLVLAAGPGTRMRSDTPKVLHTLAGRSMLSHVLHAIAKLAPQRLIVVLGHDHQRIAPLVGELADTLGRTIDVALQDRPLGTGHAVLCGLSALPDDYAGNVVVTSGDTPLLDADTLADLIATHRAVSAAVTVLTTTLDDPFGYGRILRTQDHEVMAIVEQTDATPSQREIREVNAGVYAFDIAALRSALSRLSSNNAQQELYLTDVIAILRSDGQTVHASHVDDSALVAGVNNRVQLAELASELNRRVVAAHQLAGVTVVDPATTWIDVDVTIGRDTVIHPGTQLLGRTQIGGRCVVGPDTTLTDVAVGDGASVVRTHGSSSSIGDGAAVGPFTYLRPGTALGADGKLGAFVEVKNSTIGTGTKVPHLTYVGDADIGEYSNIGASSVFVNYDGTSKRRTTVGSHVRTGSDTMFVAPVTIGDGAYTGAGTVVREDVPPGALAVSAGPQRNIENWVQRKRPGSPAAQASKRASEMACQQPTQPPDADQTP
Sequence of Estrogen receptor beta (Q92731 whole entry, the tested form may be a part): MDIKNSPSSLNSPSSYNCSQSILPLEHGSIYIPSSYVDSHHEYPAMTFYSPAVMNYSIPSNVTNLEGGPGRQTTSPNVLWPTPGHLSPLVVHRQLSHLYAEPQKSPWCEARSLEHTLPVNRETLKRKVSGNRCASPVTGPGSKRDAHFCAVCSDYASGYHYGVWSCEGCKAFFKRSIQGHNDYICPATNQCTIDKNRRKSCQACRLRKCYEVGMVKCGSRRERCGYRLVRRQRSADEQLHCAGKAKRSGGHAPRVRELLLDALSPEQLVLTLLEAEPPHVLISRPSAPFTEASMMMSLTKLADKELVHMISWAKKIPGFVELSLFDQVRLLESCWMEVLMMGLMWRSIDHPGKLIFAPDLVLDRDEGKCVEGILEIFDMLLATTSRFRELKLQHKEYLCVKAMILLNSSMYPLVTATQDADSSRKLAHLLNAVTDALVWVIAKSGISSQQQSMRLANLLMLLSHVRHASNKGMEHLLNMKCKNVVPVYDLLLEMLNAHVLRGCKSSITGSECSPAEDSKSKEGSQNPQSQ

## O=C(O)C1C2C=CC(CC2)C1C(=O)O (stereo not given)
[1]
  IC50: 114 µM (active)

## Cc1c(Cl)cccc1NC(=O)CC1SCCNC1=O (stereo not given)
Estrogen receptor beta
  IC50: > 50 µM (not active)

## O=c1oc2ccc(Cl)cc2nc1/C=C(\O)c1cccs1
[2]
  EC50: 230 µM (active)
[3]
  EC50: 153 µM (active)
[4]
  IC50: 2.2 µM (active)

## O=C1NCCN1CCN1CCC(c2cn(-c3ccc(F)cc3)c3ccc(Cl)cc23)CC1 [SERTINDOLE]
[5]
  IC50: 2.6 µM (active)
[6]
  IC50: 2.81 µM (active)
[7]
  IC50: 2.86 µM (active)
[8]
  IC50: 3.52 µM (active)
[9]
  IC50: 1.43 µM (active)
[10]
  IC50: 5.62 µM (inactive)
[11]
  IC50: 3.7 µM (active)
[12]
  IC50: 2.16 µM (active)

## COCC(C)n1c(C)cc(C(=O)Cn2nc(C(=O)O)c3ccccc3c2=O)c1C (stereo not given)
[4]
  IC50: 11.4 µM (not active)

## COc1cccc(NC(=O)/C=C\c2ccc(Cl)cc2)c1
Cytochrome P450 2C19
  AC50: 3.98 µM (inconclusive)
